Results on 37 compounds are retold here after the RepoRT retention time repository (doi:10.1007/s00216-013-6954-6).

A short description of series [1]: RP, Waters ACQUITY UPLC HSS T3, 150 × 2.1 mm, 1.8 µm; A: water + 0.1% formic acid; B: acetonitrile + 0.1% formic acid; gradient (min/%B) 0/5 1/5 16/95 18/95. Particulars: stereoisomer not certain.
Series [2] can be described thus: RP, Waters ACQUITY UPLC HSS T3, 100 × 1 mm, 1.8 µm; A: water + 0.1% formic acid, pH 3; B: acetonitrile + 0.1% formic acid, pH 3; gradient (min/%B) 0/5 1/5 16/95 18/95 20/5. Particulars: stereoisomer not certain.

Regarding `Nc1ncnc2c1ncn2C1CC(O)C(CO)O1` (centres undefined), the LC retention time in series [1] and in series [2] was 0.8 min throughout.
As to `CC(C)CC(NC(=O)C(N)C(C)C)C(=O)O` (stereo not drawn) [H-Val-Leu-OH], the LC retention time in series [2] was determined as 2.7 min.
Still for that read-out and setting: as for `CC(CCC(=O)O)C1CCC2C3CCC4CC(O)CCC4(C)C3CC(O)C12C` (centres undefined) [Deoxycholic acid], the figure is 10.7 min; as for `CC(C)C(N)C(=O)NC(Cc1ccccc1)C(=O)O` (stereo not drawn) [H-Val-Phe-OH], 3.3 min.
With `COc1cc(C=CCO)cc(OC)c1OC1OC(CO)C(O)C(O)C1O` (centres undefined) [Syringin], in series [2], the LC retention time was 3.2 min.
Still for that read-out and setting: as for `NCCS(=O)(=O)O` [Taurine], the figure is 0.446 min.
On the same count and under the same terms, as for `O=C(O)CNC(=O)c1ccccc1` [Hippuric acid], the figure is 3.39 min; as for `CC(C)CC(N)C(=O)NC(CC(C)C)C(=O)O` (stereo not drawn) [H-Leu-Leu-OH], 3.6 min.
In the case of `O=C(O)CCCC(=O)O` [Glutaric acid], the LC retention time in series [2] came out at 1.14 min.
Turning to `CCC(C)C(N)C(=O)O` (centres undefined) [Isoleucine], the LC retention time in series [2] is 0.795 min.
For `CC(C)C(NC(=O)C(N)Cc1ccccc1)C(=O)O` (stereo not drawn) [H-Phe-Val-OH], the LC retention time in series [2] amounted to 3 min.
Regarding `CSCCCCCCCC(N)C(=O)O` (centres undefined) [Pentahomo-Met], in series [2], the LC retention time turned out to be 4.6 min.
Still for that read-out and setting: as for `O=C(O)CCCCCC(=O)O` [Pimelic acid], the figure is 3.47 min; as for `O=C1CCC(C(=O)O)N1` (centres undefined) [Pyroglutamic acid], 0.687 min.
With `O=C(O)CCCCCCCC(=O)O` [Azelaic acid], the LC retention time in series [2] worked out at 5.35 min.
Still for that read-out and setting: then `O=C(O)C(O)Cc1ccccc1` (centres undefined) [phenyllactic acid], with 4.37 min; and `O=c1ccc2cc(OC3OC(CO)C(O)C(O)C3O)c(O)cc2o1` (centres undefined) [Esculin], with 2.9 min.
Still for that read-out and setting: then `CC(C)CC(N)C(=O)O` (centres undefined) [Leucine], with 0.795 min; and `CCC(C)C(NC(=O)C(N)Cc1ccc(O)cc1)C(=O)O` (stereo not drawn) [H-Tyr-Ile-OH], with 2.9 min.
On to `Nc1ccc(C(=O)O)cc1` [paba], for which the LC retention time in series [2] is 1.95 min.
Consider `COC1C(O)C(CO)OC1n1cnc2c(N)ncnc21` (centres undefined), for which the LC retention time in series [1] and in series [2] was 1.1 min throughout.
For the compound `CC(C)CC(N)C(=O)NC(Cc1ccccc1)C(=O)O` (centres undefined) [H-Leu-Phe -OH], the LC retention time in series [2] came to 4.2 min.
As to `CCC(C)C(NC(=O)C(N)CC(C)C)C(=O)O` (stereo not drawn) [H-Leu-Ile-OH], the LC retention time in series [2] came to 3.3 min.
For `CC(C)CC(NC(=O)C(N)Cc1ccc(O)cc1)C(=O)O` (stereo not drawn) [H-Tyr-Leu-OH], the LC retention time in series [2] turned out to be 3.2 min.
On the same count and under the same terms, as for `O=C(O)c1c[nH]c2ccccc12` [Indole-3-carboxylic acid (I3CO2H)], the figure is 4.7 min; as for `Nc1nc2c(ncn2C2OC(CO)C(O)C2O)c(=O)[nH]1` (centres undefined) [Guanosine], 1.1 min.
In the case of `Cn1c(=O)c2c(ncn2C)n(C)c1=O` [Caffeine], in series [2], the LC retention time worked out at 3.46 min.
On the same count and under the same terms, then `Nc1ncnc2nc[nH]c12` [Adenine], with 0.525 min; and `CCC(C)C(N)C(=O)NC(C(=O)O)C(C)CC` (stereo not drawn) [H-Ile-Ile-OH], with 3.1 min; and `O=c1cc[nH]c(=O)[nH]1` [Uracil], with 0.638 min.
On the same count and under the same terms, as for `NC(=O)NCCCC(N)C(=O)O` (centres undefined) [Citrulline], the figure is 0.457 min; as for `COc1cc(C=CCO)ccc1OC1OC(CO)C(O)C(O)C1O` (centres undefined) [Coniferin], 3 min; as for `CC(CCC(=O)O)C1CCC2C3C(O)CC4CC(O)CCC4(C)C3CC(O)C12C` (centres undefined) [Cholic acid], 8.94 min.
Consider `NCC(=O)NC(Cc1ccccc1)C(=O)O` (stereo not drawn) [H-Gly-Phe-OH], for which the LC retention time in series [2] was 2.3 min.
The same measure, in the same setting: then `Cn1cnc(C[C@H](N)C(=O)O)c1` [1-Methyl-L-Histidine], with 0.407 min.
On the same count and under the same terms, then `CC(CCC(=O)O)C1CCC2C3C(O)CC4CC(O)CCC4(C)C3CCC12C` (centres undefined) [Chenodeoxycholic acid], with 10.5 min; and `O=c1[nH]c(=O)c2[nH]c(=O)[nH]c2[nH]1` [Uric acid], with 0.643 min.
